Marks after values point to notes of the source that are not given here.
Assays:
Wistar rats = assay: Oral Glucose Tolerance Test (OGTT) model in Wistar rats, single dose; format: in vivo; settings: for blood glucose level, mean / area under curve, mean: metformin 200 mg/kg, n = 6
Method: An animal study was conducted to assess the effect of administering the anti-SGLT1 IgY antibody in an Oral Glucose Tolerance Test (OGTT) model in Wistar rats. The OGTT test was performed to determine if an intervention has blocked the intestinal absorption of orally given glucose load, and then lowering of the increase in blood glucose levels is observed. […] The OGTT studies were conducted on overnight fasting animals.

[1] = Method: The animals were acclimatized and were randomly distributed into 6 groups, each group comprised of 6 rats. The rats in group G1 served as a normal control group and were administered the vehicle (normal saline) alone at the dose volume of 10 mL/kg, whereas the rats in groups G2 and G3 were administered metformin and anti-SGLT1 IgY antibody, respectively, at the doses of 200 mg/kg and 500 mg/kg body weight for single administration.
SGLT1 = biological target: T1, SGLT1 (Homo sapiens, UniProt P13866); assay: Inhibition of glucose uptake in human intestinal cell line CaCo2; format: cell-based; settings: CaCo2 cells; 800 μg/ml; relative to uptake without intervention; FIG. 3
T1 construct: a human intestinal cell line CaCo2, which expresses SGLT1; endogenous in cells; host or cells: CaCo2
T1 sequence (P13866 1-664): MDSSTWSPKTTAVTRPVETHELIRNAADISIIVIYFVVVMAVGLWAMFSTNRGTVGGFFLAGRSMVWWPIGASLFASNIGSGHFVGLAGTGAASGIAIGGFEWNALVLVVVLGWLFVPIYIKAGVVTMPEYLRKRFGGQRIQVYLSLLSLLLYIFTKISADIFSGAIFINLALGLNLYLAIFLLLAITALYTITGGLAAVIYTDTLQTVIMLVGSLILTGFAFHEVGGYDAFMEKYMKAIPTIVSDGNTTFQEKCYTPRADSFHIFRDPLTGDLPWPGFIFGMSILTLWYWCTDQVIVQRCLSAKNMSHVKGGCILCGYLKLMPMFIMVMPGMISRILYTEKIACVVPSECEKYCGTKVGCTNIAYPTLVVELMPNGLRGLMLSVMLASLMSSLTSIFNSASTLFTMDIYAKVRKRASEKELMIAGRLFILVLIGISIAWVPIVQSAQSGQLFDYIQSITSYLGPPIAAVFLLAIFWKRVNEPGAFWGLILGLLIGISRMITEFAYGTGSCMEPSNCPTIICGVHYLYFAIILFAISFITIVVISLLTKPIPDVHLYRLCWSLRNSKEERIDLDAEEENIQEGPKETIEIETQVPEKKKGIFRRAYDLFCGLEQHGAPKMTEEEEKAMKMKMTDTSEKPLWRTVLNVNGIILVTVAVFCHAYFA
Method: The IgY antibodies were then tested for their ability to inhibit the uptake of glucose in a human intestinal cell line CaCo2, which expresses SGLT1. The data in FIG. 3 are shown as percent inhibition of glucose uptake relative to glucose uptake in the absence of any intervention. […] In the figure, ** is P<0.01 Student's t-tests were performed to compare between the glucose inhibition shown by controls, peptide, and different concentration of IgY antibodies.

[2] = 30, 60, 90 and 120 min after 2 g/kg oral glucose

Row | percent inhibition of glucose uptake (SGLT1) | Molecule | blood glucose level, mean (Wistar rats; 0 minutes (before glucose 2 gm/kg), anti-SGLT1 IgY 500 mg/kg given 30 min before) | area under curve, mean (Wistar rats; 0 minutes, anti-SGLT1 IgY 500 mg/kg) | area under curve compared to normal control group G1 (Wistar rats; [2]) | blood glucose level compared to normal control group G1 (Wistar rats; [2]) | blood glucose level, mean (Wistar rats; 30 minutes after glucose 2 gm/kg, anti-SGLT1 IgY 500 mg/kg) | area under curve, mean (Wistar rats; 30 minutes, anti-SGLT1 IgY 500 mg/kg) | blood glucose level, mean (Wistar rats; 60 minutes after glucose 2 gm/kg, anti-SGLT1 IgY 500 mg/kg) | area under curve, mean (Wistar rats; 60 minutes, anti-SGLT1 IgY 500 mg/kg) | blood glucose level, mean (Wistar rats; 90 minutes after glucose 2 gm/kg, anti-SGLT1 IgY 500 mg/kg) | area under curve, mean (Wistar rats; 90 minutes, anti-SGLT1 IgY 500 mg/kg) | blood glucose level, mean (Wistar rats; 120 minutes after glucose 2 gm/kg, anti-SGLT1 IgY 500 mg/kg) | area under curve, mean (Wistar rats; 120 minutes, anti-SGLT1 IgY 500 mg/kg) | blood glucose level, mean (Wistar rats; 180 minutes after glucose 2 gm/kg, anti-SGLT1 IgY 500 mg/kg) | area under curve, mean (Wistar rats; 180 minutes, anti-SGLT1 IgY 500 mg/kg) | Mortality ([1]; male rats, single dose, metformin 200 mg/kg, anti-SGLT1 IgY 500 mg/kg, deaths/animals observed) | Individual Animal Clinical Signs Observations ([1]; male, Wistar, rat, in vivo, 1 day) | Body Weights, mean ([1]; rat, in vivo)
1 | – | CN(C)C(=N)N=C(N)N [Metformin, metformin] | 108.17 mg/dL | 0.00 mg/dL | Significantly decreased | Significantly decreased | 161.67** mg/dL | 8.99* mg/dL | 127.17* mg/dL | 9.63** mg/dL | 121.50* mg/dL | 8.29** mg/dL | 114.00** mg/dL | 7.85** mg/dL | 106.33** mg/dL | 3.67** mg/dL | 0/6 | 1 | 232.63 g
2 | able to block the uptake of glucose | QSGQLFDYIQSITSYLGPP [peptide used as antigen] | – | – | – | – | – | – | – | – | – | – | – | – | – | – | – | – | –
